Read-outs that look alike come from different tables or passages of the source.
Molecular target: HIV-1 protease (Human immunodeficiency virus type 1 group M subtype B, UniProt P04585)
Experiment: biochemical
Conditions: for inhibition at 0.123 µM: read-out: HIV-1 Protease % Inhib, dose 0.123 uM; for inhibition at 0.37 µM: read-out: HIV-1 Protease % Inhib, dose 0.370 uM
How it was run: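 Biotinylated, FITC-labeled peptide substrate (20 μl of 0.2 μM) incubated with HIV-1 protease (10 μl of 0.1 μM) and compound in 0.1 M sodium acetate pH 5.5, 1.0 M NaCl, 0.05% NP-40, 1 h, room temperature, dark. Streptavidin beads then capture uncleaved substrate; filtered labeled product read by fluorescence, giving percent inhibition.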

[1] = read-out: HIV-1 Protease % Inhib, dose 1.100 uM
[2] = read-out: HIV-1 Protease % Inhib, dose 3.300 uM
[3] = read-out: HIV-1 Protease % Inhib, dose 10.000 uM
[4] = read-out: HIV-1 Protease % Inhib, dose 30.000 uM
[5] = dose 1.100 uM, read-out: HIV-1 Protease % Inhib
[6] = dose 3.300 uM, read-out: HIV-1 Protease % Inhib
[7] = dose 10.000 uM, read-out: HIV-1 Protease % Inhib
[8] = dose 30.000 uM, read-out: HIV-1 Protease % Inhib

Row | inhibition at 1.1 µM [5] | inhibition at 3.3 µM [6] | inhibition at 10 µM [7] | inhibition at 30 µM [8] | SMILES | HIV-1 Protease % Inhib (dose 1.100 uM) | HIV-1 Protease % Inhib (dose 3.300 uM) | HIV-1 Protease % Inhib (dose 10.000 uM) | HIV-1 Protease % Inhib (dose 30.000 uM) | inhibition at 0.123 µM | inhibition at 0.37 µM | inhibition at 1.1 µM [1] | inhibition at 3.3 µM [2] | inhibition at 10 µM [3] | inhibition at 30 µM [4]
1 |  |  |  |  | CCCCOc1ccc(S(=O)(=O)Nc2cccc(C(c3c(O)c4c(oc3=O)CCCCCC4)C3CC3)c2)cc1 (centres unmarked) [Example 406, 4-Butoxy-N-[3-[cyclopropyl(5,6,7,8,9,10-hexahydro-4-hydroxy-2-oxo-2H-cycloocta[b]pyran-3-yl)methyl]phenyl]-benzenesulfonamide] | 87.61% | 85.17% | 97.39% | 97.21% | 37.1% | 69.4% |  |  |  | 
2 |  |  |  |  | O=c1oc2c(c(O)c1C(c1cccc(NS(=O)(=O)c3ccc(Cl)c(Cl)c3Cl)c1)C1CC1)CCCCCC2 (centres unmarked) [Example 410, 2,3,4-Trichloro-N-[3-[cyclopropyl(5,6,7,8,9,10-hexahydro-4-hydroxy-2-oxo-2H-cycloocta[b]pyran-3-yl)methyl]phenyl]-benzenesulfonamide] |  |  |  |  | 49.5% | 79.7% | 91.4% | 90.9% | 96.8% | 98.3%
3 |  |  |  |  | CC(C)C(c1cccc(NS(=O)(=O)c2cccc3cccnc23)c1)c1c(O)c2c(oc1=O)CCCCCC2 (centres unmarked) [Example 416, 8-Quinolinesulfonamide, N-[3-[1-(5,6,7,8,9,10-hexahydro4-hydroxy-2-oxo-2H-cycloocta[b]pyran-3-yl)-2-methylpropyl]phenyl]-] |  |  |  |  | 50.9% | 88% | 102% | 99.7% | 98.6% | 97.8%
4 |  |  |  |  | CC(C)C(c1cccc(NS(=O)(=O)c2cccnc2)c1)c1c(O)c2c(oc1=O)CCCCCC2 (centres unmarked) [Example 417, 3-Pyridinesulfonamide, N-[3-[1-(5,6,7,8,9,10-hexahydro4-hydroxy-2-oxo-2H-cycloocta[b]pyran-3-yl)-2-methylpropyl]phenyl]-] |  |  |  |  | 36.4% | 65.9% | 89.2% | 95.1% | 102% | 97.3%
5 |  |  |  |  | CC(C)C(c1cccc(NS(=O)(=O)c2ccc(F)cc2)c1)c1c(O)c2c(oc1=O)CCCCCC2 (centres unmarked) [Example 418, Benzenesulfonamide, N-[3-[1-(5,6,7,8,9,10-hexahydro-4-hydroxy-2-oxo-2H-cycloocta[b]pyran-3-yl)-2-methylpropyl]phenyl]4-fluoro-] |  |  |  |  | 81.8% | 87.5% | 98.6% | 110% | 119% | 123%
6 |  |  |  |  | CCCCC(c1cccc(NS(=O)(=O)c2ccc(C#N)cc2)c1)c1c(O)c2c(oc1=O)CCCCCC2 (centres unmarked) [Example 421, Benzenesulfonamide, 4-cyano-N-[3-[1-(5,6,7,8,9,10-hexahydro-4-hydroxy-2-oxo-2H-cycloocta[b]pyran-3-yl)pentyl]phenyl]-] |  |  |  |  | 93.9% | 104% | 99.1% | 97.9% | 108% | 90%
7 |  |  |  |  | CCCCC(c1cccc(NS(=O)(=O)c2ccc(F)cc2)c1)c1c(O)c2c(oc1=O)CCCCCC2 (centres unmarked) [Example 422] |  |  |  |  | 100% | 95.4% | 96.5% | 103% | 97.6% | 95.2%
8 |  |  |  |  | CC(C)CC(c1cccc(NS(=O)(=O)c2ccc(F)cc2)c1)c1c(O)c2c(oc1=O)CCCCCC2 (centres unmarked) [Example 425, Benzenesulfonamide, N-[3-[1-(5,6,7,8,9,10-hexahydro-4-hydroxy-2-oxo-2H-cycloocta[b]pyran-3-yl)-3-methylbutyl]phenyl]-4-fluoro-] |  |  |  |  | 97.4% | 109% | 101% | 108% | 98.5% | 98.5%
9 |  |  |  |  | CC(C)CC(c1cccc(NS(=O)(=O)c2cccc3cccnc23)c1)c1c(O)c2c(oc1=O)CCCCCC2 (centres unmarked) [Example 428, 8-Quinolinesulfonamide, N-[3-[1-(5,6,7,8,9,10-hexahydro4-hydroxy-2-oxo-2H-cycloocta[b]pyran-3-yl)-3-methylbutyl]phenyl]-] |  |  |  |  | 86.3% | 84% | 86.5% | 87.1% | 87.9% | 84.2%
10 |  |  |  |  | CC(C)CC(c1cccc(NS(=O)(=O)c2cccnc2)c1)c1c(O)c2c(oc1=O)CCCCCC2 (centres unmarked) [Example 429, 3-Pyridinesulfonamide, N-[3-[1-(5,6,7,8,9,10-hexahydro4-hydroxy-2-oxo-2H-cycloocta[b]pyran-3-yl)-3-methylbutyl]phenyl]-] |  |  |  |  | 88.6% | 98.2% | 99.9% | 103% | 107% | 108%
11 |  |  |  |  | CCCC(c1cccc(NS(=O)(=O)c2ccc(F)cc2)c1)c1c(O)c2c(oc1=O)CCCCCC2 (centres unmarked) [Example 430, Benzenesulfonamide, N-[3-[1-(5,6,7,8,9,10-hexahydro-4-hydroxy-2-oxo-2H-cycloocta[b]pyran-3-yl)butyl]phenyl]-4-fluoro-] |  |  |  |  | 72.3% | 98.2% | 96.6% | 104% | 105% | 97.3%
12 | 16.1% | 59.2% | 102% | 118% | O=C(Nc1ccc(C(c2c(O)c3c(oc2=O)CCCCCC3)C2CC2)cc1)OCc1ccccc1 (centres unmarked) [Example 470, Carbamic acid, [4-[cyclopropyl (5,6,7,8,9,10-hexahydro-4-hydroxy-2-oxo-2H-cycloocta[b]pyran-3-yl)methyl]phenyl]-phenylmethyl ester] |  |  |  |  |  |  |  |  |  | 
13 | 37.5% | 75.6% | 102% | 110% | Nc1ccc(C(c2c(O)c3c(oc2=O)CCCCCC3)C2CC2)cc1 (centres unmarked) [Example 471, 3-[(4-Aminophenyl)cyclopropylmethyl]-5,6,7,8,9,10-hexahydro-4-hydroxy-2H-cycloocta[b]pyran-2-one] |  |  |  |  |  |  |  |  |  | 
14 |  | 15.5% | 82.2% | 110% | N#Cc1ccc(S(=O)(=O)Nc2ccc(C(c3c(O)c4c(oc3=O)CCCCCC4)C3CC3)cc2)cc1 (centres unmarked) [Example 472, Benzenesulfonamide, 4-cyano-N-[4-[cyclopropyl (5,6,7,8,9,10-hexahydro-4-hydroxy-2-oxo-2H-cycloocta [b]pyran-3-yl)methyl]phenyl]-] |  |  |  |  |  |  |  |  |  | 
15 |  | 14.4% | 73.6% | 86.8% | O=c1oc2c(c(O)c1C(c1ccc(NS(=O)(=O)c3ccc(Cl)cc3)cc1)C1CC1)CCCCCC2 (centres unmarked) [Example 473, Benzenesulfonamide, 4-chloro-N-[4-[cyclopropyl(5,6,7,8,9,10-hexahydro-4-hydroxy-2-oxo-2H-cycloocta[b]pyran-3-yl)methyl]phenyl]-] |  |  |  |  |  |  |  |  |  | 
16 |  | 11.4% | 40.4% | 57.2% | O=c1oc2c(c(O)c1C(c1ccc(NS(=O)(=O)c3ccc(F)cc3)cc1)C1CC1)CCCCCC2 (centres unmarked) [Example 474, Benzenesulfonamide, 4-fluoro-N-[4-[cycloptopyl(5,6,7,8,9,10-hexahydro-4-hydroxy-2-oxo-2H-cycloocta[b]pyran-3-yl)methyl]phenyl]-] |  |  |  |  |  |  |  |  |  | 

Reference: US5686486A, “4-hydroxy-benzopyran-2-ones and 4-hydroxy-cycloalkyl[b]pyran-2-ones useful to treat retroviral infections” (priority 1995, dated 1997)
